Measurements: patent US20190152957A1, “PYRIDIN-3-YL ACETIC ACID DERIVATIVES AS INHIBITORS OF HUMAN IMMUNODEFICIENCY VIRUS REPLICATION” (ViiV HEALTHCARE UK (NO.5) LIMITED, priority 2016, published 2019)
Read-outs that look alike come from different tables or passages of the source.

Tested on: recombinant NL-RLuc virus (HIV NL4-3 with Renilla Luciferase gene) in MT-2 cells
Assay: Inhibition of HIV replication (NL-RLuc virus, luciferase readout in MT-2 cells)
Format: cell-based
Conditions: MT2, 120 h
Excerpt: Inhibition of HIV Replication:
A recombinant NL-RLuc proviral clone was constructed in which a section of the nef gene from NL4-3 was replaced with the Renilla Luciferase gene. This virus is fully infectious and can undergo multiple cycles of replication in cell culture. In addition, the luciferous reporter provides a simple and easy method for quantitating the extent of virus growth and consequently, the antiviral activity of test compounds. The plasmid pNLRLuc contains the proviral NL-Rluc DNA cloned into pUC18 at the PvuII site. The NL-RLuc virus was prepared by transfection of 293T cells with the plasmid pNLRLuc. Transfections were performed using the LipofectAMINE PLUS kit from Invitrogen (Carlsbad, Calif.) according to the manufacturer and the virus generated was titered in MT-2 cells. For susceptibility analyses, the titrated virus was used to infect MT-2 cells in the presence of compound, and after 5 days of incubation, cells were processed and quantitated for virus growth by the amount of expressed luciferase. Assay media was RPMI 1640 supplemented with 10% heat inactivated fetal bovine serum (FBS), 100 units/ml penicillin G/100 units/ml streptomycin, 10 mM HEPES buffer pH 7.55 and 2 mM L-glutamine. The results from at least 2 experiments were used to calculate the EC50 values. Luciferase was quantitated using the Dual Luciferase kit from Promega (Madison, Wis.). Susceptibility of viruses to compounds was determined by incubation in the presence of serial dilutions of the compound. The 50% effective concentration (EC50) was calculated by using the exponential form of the median effect equation where (Fa)=1/[1+(ED50/drug conc.)^m](Johnson V A, Byington R T. Infectivity Assay. In Techniques in HIV Research. ed. Aldovini A, Walker BD. 71-76. New York: Stockton Press. 1990). Activity equal to A refers to a compound having an EC50≤100 nM, while B and C denote compounds having an EC50 between 100 nM and 1 uM (B) or >1 uM (C).

Structure (SMILES) | EC50 (read-out: Activity) [µM] | EC50 (read-out: EC50 μM) [µM]
Cc1nc(C)c([C@H](OC(C)(C)C)C(=O)O)c(N2CCC(C)(C)CC2)c1-c1ccc2c(c1)CCN(CC1CCCOC1)C2 (stereo partly drawn) [Compound 1, (2S)-2-(tert-butoxy)-2-(4-(4,4-dimethylpiperidin-1-yl)-2,6-dimethyl-5-(2-((tetrahydro-2H-pyran-3-yl)methyl)-1,2,3,4-tetrahydroisoquinolin-6-yl)pyridin-3-yl)acetic acid] | < 0.1 | 0.028
Cc1nc(C)c([C@H](OC(C)(C)C)C(=O)O)c(N2CCC(C)(C)CC2)c1-c1ccc2c(c1)CCN(CC1C[C@@H]3CC[C@H]1C3)C2 (stereo partly drawn) [Compound 2, (2S)-2-(5-(2-((1S,4R)-bicyclo[2.2.1]heptan-2-ylmethyl)-1,2,3,4-tetrahydroisoquinolin-6-yl)-4-(4,4-dimethylpiperidin-1-yl)-2,6-dimethylpyridin-3-yl)-2-(tert-butoxy)acetic acid] | < 0.1 | 
Cc1nc(C)c([C@H](OC(C)(C)C)C(=O)O)c(N2CCC(C)(C)CC2)c1-c1ccc2c(c1)CCN(CC1CCOC(C)(C)C1)C2 (stereo partly drawn) [Compound 3, (2S)-2-(tert-butoxy)-2-(4-(4,4-dimethylpiperidin-1-yl)-5-(2-((2,2-dimethyltetrahydro-2H-pyran-4-yl)methyl)-1,2,3,4-tetrahydroisoquinolin-6-yl)-2,6-dimethylpyridin-3-yl)acetic acid] | < 0.1 | 
Cc1nc(C)c([C@H](OC(C)(C)C)C(=O)O)c(N2CCC(C)(C)CC2)c1-c1ccc2c(c1)CCN(CC1CC1)C2 [Compound 4, (S)-2-(tert-butoxy)-2-(5-(2-(cyclopropylmethyl)-1,2,3,4-tetrahydroisoquinolin-6-yl)-4-(4,4-dimethylpiperidin-1-yl)-2,6-dimethylpyridin-3-yl)acetic acid] | < 0.1 | 
Cc1nc(C)c([C@H](OC(C)(C)C)C(=O)O)c(N2CCC(C)(C)CC2)c1-c1ccc2c(c1)CCN(CC1CCCCC1)C2 [Compound 5, (S)-2-(tert-butoxy)-2-(5-(2-(cyclohexylmethyl)-1,2,3,4-tetrahydroisoquinolin-6-yl)-4-(4,4-dimethylpiperidin-1-yl)-2,6-dimethylpyridin-3-yl)acetic acid] | < 0.1 | 
Cc1nc(C)c([C@H](OC(C)(C)C)C(=O)O)c(N2CCC(C)(C)CC2)c1-c1ccc2c(c1)CCN(C[C@H]1C[C@H]3C=C[C@@H]1C3)C2 [Compound 6, (S)-2-(5-(2-((1S,2S,4S)-bicyclo[2.2.1]hept-5-en-2-ylmethyl)-1,2,3,4-tetrahydroisoquinolin-6-yl)-4-(4,4-dimethylpiperidin-1-yl)-2,6-dimethylpyridin-3-yl)-2-(tert-butoxy)acetic acid] | < 0.1 | 
Cc1nc(C)c([C@H](OC(C)(C)C)C(=O)O)c(N2CCC(C)(C)CC2)c1-c1ccc2c(c1)CCN(C[C@H]1C[C@@H]3C=C[C@H]1C3)C2 [Compound 7, (S)-2-(5-(2-((1R,2S,4R)-bicyclo[2.2.1]hept-5-en-2-ylmethyl)-1,2,3,4-tetrahydroisoquinolin-6-yl)-4-(4,4-dimethylpiperidin-1-yl)-2,6-dimethylpyridin-3-yl)-2-(tert-butoxy)acetic acid] | < 0.1 | 
Cc1ncsc1CN1CCc2cc(-c3c(C)nc(C)c([C@H](OC(C)(C)C)C(=O)O)c3N3CCC(C)(C)CC3)ccc2C1 [Compound 8, (S)-2-(tert-butoxy)-2-(4-(4,4-dimethylpiperidin-1-yl)-2,6-dimethyl-5-(2-((4-methylthiazol-5-yl)methyl)-1,2,3,4-tetrahydroisoquinolin-6-yl)pyridin-3-yl)acetic acid] | < 0.1 | 0.002
Cc1nc(C)c([C@H](OC(C)(C)C)C(=O)O)c(N2CCC(C)(C)CC2)c1-c1ccc2c(c1)CCN(Cc1nccs1)C2 [Compound 9, (S)-2-(tert-butoxy)-2-(4-(4,4-dimethylpiperidin-1-yl)-2,6-dimethyl-5-(2-(thiazol-2-ylmethyl)-1,2,3,4-tetrahydroisoquinolin-6-yl)pyridin-3-yl)acetic acid] | < 0.1 | 
Cc1nc(C)c([C@H](OC(C)(C)C)C(=O)O)c(N2CCC(C)(C)CC2)c1-c1ccc2c(c1)CCN(Cc1cscn1)C2 [Compound 10, (S)-2-(tert-butoxy)-2-(4-(4,4-dimethylpiperidin-1-yl)-2,6-dimethyl-5-(2-(thiazol-4-ylmethyl)-1,2,3,4-tetrahydroisoquinolin-6-yl)pyridin-3-yl)acetic acid] | < 0.1 | 
Cc1nc(C)c([C@H](OC(C)(C)C)C(=O)O)c(N2CCC(C)(C)CC2)c1-c1ccc2c(c1)CCN(Cc1cccnc1)C2 [Compound 11, (S)-2-(tert-butoxy)-2-(4-(4,4-dimethylpiperidin-1-yl)-2,6-dimethyl-5-(2-(pyridin-3-ylmethyl)-1,2,3,4-tetrahydroisoquinolin-6-yl)pyridin-3-yl)acetic acid] | < 0.1 | 
Cc1nc(C)c([C@H](OC(C)(C)C)C(=O)O)c(N2CCC(C)(C)CC2)c1-c1ccc2c(c1)CCN(Cc1ccncc1)C2 [Compound 12, (S)-2-(tert-butoxy)-2-(4-(4,4-dimethylpiperidin-1-yl)-2,6-dimethyl-5-(2-(pyridin-4-ylmethyl)-1,2,3,4-tetrahydroisoquinolin-6-yl)pyridin-3-yl)acetic acid] | < 0.1 | 
Cc1cc(CN2CCc3cc(-c4c(C)nc(C)c([C@H](OC(C)(C)C)C(=O)O)c4N4CCC(C)(C)CC4)ccc3C2)no1 [Compound 13, (S)-2-(tert-butoxy)-2-(4-(4,4-dimethylpiperidin-1-yl)-2,6-dimethyl-5-(2-((5-methylisoxazol-3-yl)methyl)-1,2,3,4-tetrahydroisoquinolin-6-yl)pyridin-3-yl)acetic acid] | < 0.1 | 
Cc1nc(C)c([C@H](OC(C)(C)C)C(=O)O)c(N2CCC(C)(C)CC2)c1-c1ccc2c(c1)CCN(Cc1nc(-c3ccccc3)oc1C)C2 [Compound 14, (S)-2-(tert-butoxy)-2-(4-(4,4-dimethylpiperidin-1-yl)-2,6-dimethyl-5-(2-((5-methyl-2-phenyloxazol-4-yl)methyl)-1,2,3,4-tetrahydroisoquinolin-6-yl)pyridin-3-yl)acetic acid] | < 0.1 | 0.016
CCn1cncc1CN1CCc2cc(-c3c(C)nc(C)c([C@H](OC(C)(C)C)C(=O)O)c3N3CCC(C)(C)CC3)ccc2C1 [Compound 15, (S)-2-(tert-butoxy)-2-(4-(4,4-dimethylpiperidin-1-yl)-5-(2-((1-ethyl-1H-imidazol-5-yl)methyl)-1,2,3,4-tetrahydroisoquinolin-6-yl)-2,6-dimethylpyridin-3-yl)acetic acid] | < 0.1 | 
Cc1cc(CN2CCc3cc(-c4c(C)nc(C)c([C@H](OC(C)(C)C)C(=O)O)c4N4CCC(C)(C)CC4)ccc3C2)n(C)n1 [Compound 16, (S)-2-(tert-butoxy)-2-(5-(2-((1,3-dimethyl-1H-pyrazol-5-yl)methyl)-1,2,3,4-tetrahydroisoquinolin-6-yl)-4-(4,4-dimethylpiperidin-1-yl)-2,6-dimethylpyridin-3-yl)acetic acid] | < 0.1 | 
Cc1nc(C)c([C@H](OC(C)(C)C)C(=O)O)c(N2CCC(C)(C)CC2)c1-c1ccc2c(c1)CCN(Cc1ncc[nH]1)C2 [Compound 17, (S)-2-(5-(2-((1H-imidazol-2-yl)methyl)-1,2,3,4-tetrahydroisoquinolin-6-yl)-4-(4,4-dimethylpiperidin-1-yl)-2,6-dimethylpyridin-3-yl)-2-(tert-butoxy)acetic acid] | 0.1 to 1 | 0.544
